The values that follow come from patent publication US11470846B2, “Herbicidal pyridino-/pyrimidino-thiazoles” (SYNGENTA PARTICIPATIONS AG, priority 2014, dated 2022).

Type in all cases: in vivo
Assay [1] concerns Alopecurus myosuroides (ALOMY). Kind of assay: Pre-emergence herbicidal activity. The conditions noted are these: pre-emergence application, 1000 g/Ha, evaluated after 13 days, scale 0-5. On the procedure:
(§1) B1 Pre-Emergence Herbicidal Activity
(§2) Seeds of a variety of test species were sown in standard soil in pots: Triticum aestivium (TRZAW), Oryza sativa (ORYSA), Avena fatua (AVEFA), Alopecurus myosuroides (ALOMY), Echinochloa crus-galli (ECHCG), Lolium perenne (LOLPE), Zea Mays (ZEAMX), Abutilon theophrasti (ABUTH), Amaranthus retroflexus (AMARE) and Setaria faberi (SETFA). After cultivation for one day (pre-emergence) under controlled conditions in a glasshouse (at 24/16° C., day/night; 14 hours light; 65% humidity), the plants were sprayed with an aqueous spray solution derived from the formulation of the technical active ingredient in acetone/water (50:50) solution containing 0.5% Tween 20 (polyoxyethelyene sorbitan monolaurate, CAS RN 9005-64-5). The test plants were then grown in a glasshouse under controlled conditions (at 24/16° C., day/night; 14 hours light; 65% humidity) and watered twice daily. After 13 days, the test was evaluated (5=total damage to plant; 0=no damage to plant).

Assay [2] deals with Avena fatua (AVEFA). Kind of assay: Pre-emergence herbicidal activity. The conditions noted are these: pre-emergence application, 1000 g/Ha, evaluated after 13 days, scale 0-5. On the procedure:
as §1, §2

Assay [3] deals with Echinochloa crus-galli (ECHCG). Kind of assay: Pre-emergence herbicidal activity. To be noted: pre-emergence application, 1000 g/Ha, evaluated after 13 days, scale 0-5; Table 5. On the procedure: as §1, §2
For assay [4], the system named is Lolium perenne (LOLPE). Kind of assay: Pre-emergence herbicidal activity. To be noted: pre-emergence application, 1000 g/Ha, evaluated after 13 days, scale 0-5; Table 5. As for the experimental part: as §1, §2
The test system of assay [5] is Oryza sativa (ORYSA). In words: Pre-emergence herbicidal activity. To be noted: pre-emergence application, 1000 g/Ha, evaluated after 13 days, scale 0-5. On the procedure: as §1, §2
Assay [6] deals with Triticum aestivium (TRZAW). Kind of assay: Pre-emergence herbicidal activity. To be noted: pre-emergence application, 1000 g/Ha, evaluated after 13 days, scale 0-5. On the procedure: as §1, §2
The test system of assay [7] is Alopecurus myosuroides (ALOMY). Kind of assay: Post-emergence herbicidal activity. To be noted: post-emergence application, 1000 g/Ha, evaluated after 13 days, scale 0-5. As for the experimental part: (§3) B2 Post-Emergence Herbicidal Activity
(§4) Seeds of a variety of test species were sown in standard soil in pots: Triticum aestivium (TRZAW), Oryza sativa (ORYSA), Avena fatua (AVEFA), Alopecurus myosuroides (ALOMY), Echinochloa crus-galli (ECHCG), Lolium perenne (LOLPE), Zea Mays (ZEAMX), Abutilon theophrasti (ABUTH), Amaranthus retroflexus (AMARE) and Setaria faberi (SETFA). After 8 days cultivation (post-emergence) under controlled conditions in a glasshouse (at 24/16° C., day/night; 14 hours light; 65% humidity), the plants were sprayed with an aqueous spray solution derived from the formulation of the technical active ingredient in acetone/water (50:50) solution containing 0.5% Tween 20 (polyoxyethelyene sorbitan monolaurate, CAS RN 9005-64-5). The test plants were then grown in a glasshouse under controlled conditions (at 24/16° C., day/night; 14 hours light; 65% humidity) and watered twice daily. After 13 days, the test was evaluated (5=total damage to plant; 0=no damage to plant).

Assay [8] deals with Avena fatua (AVEFA). Kind of assay: Post-emergence herbicidal activity. To be noted: post-emergence application, 1000 g/Ha, evaluated after 13 days, scale 0-5. On the procedure: as §3, §4
Assay [9] deals with Echinochloa crus-galli (ECHCG). Kind of assay: Post-emergence herbicidal activity. To be noted: post-emergence application, 1000 g/Ha, evaluated after 13 days, scale 0-5; Table 7. On the procedure: as §3, §4
Assay [10] relates to Lolium perenne (LOLPE). In words: Post-emergence herbicidal activity. The conditions noted are these: post-emergence application, 1000 g/Ha, evaluated after 13 days, scale 0-5; Table 7. As for the experimental part:
as §3, §4

Assay [11] has as its system Oryza sativa (ORYSA). Kind of assay: Post-emergence herbicidal activity. To be noted: post-emergence application, 1000 g/Ha, evaluated after 13 days, scale 0-5. On the procedure: as §3, §4
Assay [12] concerns Triticum aestivium (TRZAW). Kind of assay: Post-emergence herbicidal activity. The conditions noted are these: post-emergence application, 1000 g/Ha, evaluated after 13 days, scale 0-5. As for the experimental part: as §3, §4

With `Cc1nc(-c2cccnc2)sc1N(C)C(=O)OC(C)C` [Compound A20], the “Control of weed species, ALOMY (damage score)” value (“Control of weed species, ALOMY” below) stood at 0 in assay [1] and 1 in assay [7]. In addition, the “Control of weed species, AVEFA (damage score)” value (“Control of weed species, AVEFA” below) in the assay with Avena fatua (AVEFA) [2] was found to be 2; with Avena fatua (AVEFA) [8] it was 3. In addition, the “Control of weed species, ECHCG (damage score)” value (“Control of weed species, ECHCG” below) in [3] and in assay [9] was 5 each time. Besides, the “Control of weed species, LOLPE (damage score)” value (“Control of weed species, LOLPE” below) came to 2 in the assay with Lolium perenne (LOLPE) [4] and 3 in the assay with Lolium perenne (LOLPE) [10]. For the same molecule, the “Control of weed species, ORYSA (damage score)” value (“Control of weed species, ORYSA” below) in the assay on Oryza sativa (ORYSA) [5] and in the assay on Oryza sativa (ORYSA) [11] was 0 in each case. In addition, the “Control of weed species, TRZAW (damage score)” value (“Control of weed species, TRZAW” below) in [6] was 0; in [12], 1.
With `Cc1nc(-c2cncc(C(F)(F)F)c2)sc1N(C)C(=O)OC(C)(C)C` [Compound A10], the “Control of weed species, ALOMY” value in assay [1] and in assay [7] was 0 throughout. Also, the results for the “Control of weed species, AVEFA” value with Avena fatua (AVEFA) [2] and in the assay with Avena fatua (AVEFA) [8] were 1 and 2, respectively. Further, the “Control of weed species, ECHCG” value is on record as 1 in assay [3] and 4 in assay [9]. Moreover, the “Control of weed species, LOLPE” value was found to be 1 with Lolium perenne (LOLPE) [4] and 0 in the assay with Lolium perenne (LOLPE) [10]. The “Control of weed species, ORYSA” value with Oryza sativa (ORYSA) [5] and in the assay on Oryza sativa (ORYSA) [11] was 1 in each case. Besides, the “Control of weed species, TRZAW” value in assay [6] and in assay [12] was 1 in each case.
As for `CN(C(=O)OC(C)(C)C)c1sc(-c2cncc(F)c2)nc1Br` [Compound A51], the “Control of weed species, ALOMY” value in assay [1] and in [7] was 0 in each case. Moreover, the “Control of weed species, AVEFA” value was 2 in the assay with Avena fatua (AVEFA) [2] and 4 with Avena fatua (AVEFA) [8]. Also, the results for the “Control of weed species, ECHCG” value in assay [3] and in [9] were 1 and 4, respectively. Moreover, the “Control of weed species, LOLPE” value came out at 3 in the assay with Lolium perenne (LOLPE) [4] and 2 in the assay with Lolium perenne (LOLPE) [10]. Moreover, the “Control of weed species, ORYSA” value with Oryza sativa (ORYSA) [5] and in the assay with Oryza sativa (ORYSA) [11] was 0 throughout. Also, the “Control of weed species, TRZAW” value in [6] and in assay [12] was 0 in each case.
With `CCN(C(=O)OC(C)(C)C)c1sc(-c2cccnc2)nc1C` [Compound A17], the “Control of weed species, ALOMY” value in assay [1] was found to be 0; in assay [7], 1. Further, the “Control of weed species, AVEFA” value in the assay on Avena fatua (AVEFA) [2] came to 0; with Avena fatua (AVEFA) [8] it was 4. Also, the “Control of weed species, ECHCG” value is 0 in [3] and 1 in assay [9]. Further, the entries for the “Control of weed species, LOLPE” value in the assay with Lolium perenne (LOLPE) [4] and in the assay on Lolium perenne (LOLPE) [10] were 0 and 2, respectively. The figures for the “Control of weed species, ORYSA” value in the assay with Oryza sativa (ORYSA) [5] and in the assay with Oryza sativa (ORYSA) [11] were 0 and 2, respectively. Further, the entries for the “Control of weed species, TRZAW” value in assay [6] and in assay [12] were 0 and 1, respectively.
`Cc1nc(-c2cccnc2)sc1N(C)C(=O)OC(C)(C)C` [Compound A1, tert-butyl N-methyl-N-[4-methyl-2-(3-pyridyl)thiazol-5-yl]carbamate]: the results for the “Control of weed species, ALOMY” value in assay [1] and in assay [7] were 2 and 0, respectively. Further, the “Control of weed species, AVEFA” value in the assay on Avena fatua (AVEFA) [2] and in the assay with Avena fatua (AVEFA) [8] was 4 in each case. Further, the “Control of weed species, ECHCG” value in assay [3] and in [9] was 4 each time. The figures for the “Control of weed species, LOLPE” value in the assay on Lolium perenne (LOLPE) [4] and in the assay with Lolium perenne (LOLPE) [10] were 2 and 4, respectively. Also, the “Control of weed species, ORYSA” value is 2 in the assay on Oryza sativa (ORYSA) [5] and 1 in the assay on Oryza sativa (ORYSA) [11]. The entries for the “Control of weed species, TRZAW” value in assay [6] and in [12] were 2 and 0, respectively.
In the case of `Cc1nc(-c2cc(F)c[n+]([O-])c2)sc1N(C)C(=O)OC(C)(C)C` [Compound A62, tert-butyl N-[2-(5-fluoro-3-pyridyl N-oxide)-4-methyl-thiazol-5-yl]-N-methyl-carbamate], the “Control of weed species, ALOMY” value in [1] is on record as 2; in assay [7], 1. Also, the “Control of weed species, AVEFA” value in the assay with Avena fatua (AVEFA) [2] worked out at 2; in the assay with Avena fatua (AVEFA) [8] it was 4. Also, the “Control of weed species, ECHCG” value in [3] was 3; in [9], 4. The “Control of weed species, LOLPE” value was 2 in the assay on Lolium perenne (LOLPE) [4] and 4 in the assay on Lolium perenne (LOLPE) [10]. For the same molecule, the “Control of weed species, ORYSA” value with Oryza sativa (ORYSA) [5] is on record as 1; in the assay on Oryza sativa (ORYSA) [11], 0. Further, the “Control of weed species, TRZAW” value in [6] and in [12] was 1 throughout.
As for `Cc1nc(-c2cncc(N(C)C)c2)sc1N(C)C(=O)OC(C)(C)C` [Compound A13], the “Control of weed species, ALOMY” value is reported as 0 in [1] and 1 in [7]. For the same molecule, the “Control of weed species, AVEFA” value with Avena fatua (AVEFA) [2] and in the assay with Avena fatua (AVEFA) [8] was 0 in each case. For the same molecule, the “Control of weed species, ECHCG” value came out at 1 in [3] and 2 in assay [9]. The “Control of weed species, LOLPE” value in the assay on Lolium perenne (LOLPE) [4] and in the assay with Lolium perenne (LOLPE) [10] was 0 in each case. For the same molecule, the “Control of weed species, ORYSA” value in the assay on Oryza sativa (ORYSA) [5] and in the assay with Oryza sativa (ORYSA) [11] was 1 in each case. Further, the figures for the “Control of weed species, TRZAW” value in assay [6] and in assay [12] were 0 and 2, respectively.
For the molecule `Cc1nc(-c2cccnc2)sc1N(C)C(=O)NOC(C)(C)C` [Compound A45, 3-tert-butoxy-1-methyl-1-(4-methyl-2-(3-pyridyl)thiazol-5-yl)urea], the entries for the “Control of weed species, ALOMY” value in assay [1] and in assay [7] were 2 and 1, respectively. In addition, the “Control of weed species, AVEFA” value is 3 in the assay on Avena fatua (AVEFA) [2] and 5 in the assay on Avena fatua (AVEFA) [8]. For the same molecule, the “Control of weed species, ECHCG” value was 3 in [3] and 4 in assay [9]. Besides, the “Control of weed species, LOLPE” value in the assay on Lolium perenne (LOLPE) [4] is 2; in the assay on Lolium perenne (LOLPE) [10], 4. Also, the “Control of weed species, ORYSA” value in the assay with Oryza sativa (ORYSA) [5] and with Oryza sativa (ORYSA) [11] was 2 throughout. The “Control of weed species, TRZAW” value in assay [6] was found to be 1; in assay [12], 2.
`COc1cncc(-c2nc(C(F)(F)F)c(N(C)C(=O)OC(C)(C)C)s2)c1` [Compound A28, tert-butyl N-[2-(5-methoxy-3-pyridyl)-4-(trifluoromethyl)thiazol-5-yl]-N-methyl-carbamate]: the “Control of weed species, ALOMY” value in assay [1] was 0; in assay [7], 1. Moreover, the “Control of weed species, AVEFA” value in the assay with Avena fatua (AVEFA) [2] is on record as 1; in the assay on Avena fatua (AVEFA) [8] it was 2. For the same molecule, the “Control of weed species, ECHCG” value is recorded as 3 in [3] and 4 in [9]. The “Control of weed species, LOLPE” value was determined as 2 with Lolium perenne (LOLPE) [4] and 3 in the assay on Lolium perenne (LOLPE) [10]. The “Control of weed species, ORYSA” value in the assay on Oryza sativa (ORYSA) [5] is reported as 0; in the assay on Oryza sativa (ORYSA) [11], 1. Moreover, the “Control of weed species, TRZAW” value in assay [6] amounted to 0; in assay [12], 1.
